According to US7019034B2, “Compositions and methods for reducing serum glucose and triglyceride levels in diabetic mammals” (Allergan, Inc., priority 2003, dated 2006):

What was measured:
RXRα [1] = biological target: T1, RXRα (Homo sapiens, UniProt P19793); test: holoreceptor transactivation assay, RXRα; assay type: cell-based
T1 construct: expressed in transfected cells
T1 sequence (P19793 1-462): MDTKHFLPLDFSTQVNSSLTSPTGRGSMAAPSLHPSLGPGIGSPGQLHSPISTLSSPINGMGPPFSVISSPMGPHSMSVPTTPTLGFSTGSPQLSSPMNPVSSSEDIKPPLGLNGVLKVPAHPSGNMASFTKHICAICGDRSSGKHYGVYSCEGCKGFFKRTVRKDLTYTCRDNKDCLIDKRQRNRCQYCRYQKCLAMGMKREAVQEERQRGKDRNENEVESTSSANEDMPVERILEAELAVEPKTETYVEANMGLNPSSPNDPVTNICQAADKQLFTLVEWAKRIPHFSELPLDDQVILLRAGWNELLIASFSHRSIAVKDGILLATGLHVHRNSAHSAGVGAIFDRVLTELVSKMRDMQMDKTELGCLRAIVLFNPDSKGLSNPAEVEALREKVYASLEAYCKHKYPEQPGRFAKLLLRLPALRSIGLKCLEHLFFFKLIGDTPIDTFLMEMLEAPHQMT
Description: (§1) A holoreceptor transactivation assay and a ligand binding assay which measure the antagonist/agonist like activity of the compounds of the invention, or their ability to bind to the several retinoid receptor subtypes, respectively, are described in published PCT Application No. WO WO93/11755 (particularly on pages 30–33 and 37–41) published on Jun. 24, 1993, the specification of which is also incorporated herein by reference. […] The results obtained in this assay are expressed in EC50 numbers, as they are also in the chimeric receptor transactivation assay. The results of the ligand binding assay are expressed in Ki numbers. (See Cheng et al. Biochemical Pharmacology Vol. 22 pp 3099–3108, expressly incorporated herein by reference.)
(§2) Particularly, the transactivation data pertaining to activation of the RAR receptors were obtained in the chimeric assay, and the transactivation data pertaining to the activation of RXR receptors were obtained in the holoreceptor assay.
(§3) In Table 1 NA stands for not active at all as an agonist. ND stands for not determined. The first row of numbers pertaining to each compound is the measured EC50 number. […] The third row of numbers pertaining to each compound is the binding Ki number.

young db/db mice = test: serum thyroxine (T4) in young db/db mice, 14 days oral dosing; assay type: in vivo
Description: In another study the efficacy of RXR agonists in the prevention of diabetes was tested in young db/db mice. […] Serum samples were analyzed by using commercially available kits from Boehring Manheim for their thyroxine (T4) levels in a Boehringer Manheim Hatachi Clinical Chemistry Analyzer as described in the reference manual of Boehringer Mannheim Corporation, 9115 Hague Road, Indianapolis, Ind., USA, expressly incorporated herein.

RARα [2] = biological target: T2, RARα (Homo sapiens, UniProt P10276); test: ligand binding assay, RARα; details: read-out: RAR Bind. Ki α
T2 sequence (P10276 1-462): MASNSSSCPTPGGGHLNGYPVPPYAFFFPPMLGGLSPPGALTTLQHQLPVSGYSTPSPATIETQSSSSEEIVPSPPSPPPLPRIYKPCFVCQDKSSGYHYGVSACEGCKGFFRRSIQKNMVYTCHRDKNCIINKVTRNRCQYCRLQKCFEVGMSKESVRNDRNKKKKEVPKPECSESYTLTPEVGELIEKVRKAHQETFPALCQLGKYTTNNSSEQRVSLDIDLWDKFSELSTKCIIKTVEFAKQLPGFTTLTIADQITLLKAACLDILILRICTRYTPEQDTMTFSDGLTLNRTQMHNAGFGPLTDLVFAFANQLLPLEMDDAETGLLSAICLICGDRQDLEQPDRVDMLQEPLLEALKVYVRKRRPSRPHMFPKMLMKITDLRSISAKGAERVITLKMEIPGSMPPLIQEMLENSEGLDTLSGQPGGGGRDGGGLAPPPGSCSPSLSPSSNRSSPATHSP
Description: as §1, §3

RARα [3] = biological target: T2, RARα; test: chimeric receptor transactivation assay, RARα; assay type: cell-based
Description: (§4) The specification of U.S. Pat. No. 5,455,265 is hereby expressly incorporated by reference.
as §2, with “Table 1 discloses the activity of certain exemplary compounds of the invention in the above-described receptor transactivation and binding assays. Particularly,” for “Particularly,”
(§5) Efficacy in a transactivation assay is expressed as a percentage of the maximum potency attained by the compound compared to a standard which, in this case, is the compound named (2E,4E,1′S,2′S)-3-methyl-5-[2′-methyl-2′-(5,5,8,8-tetramethyl-5,6,7,8-tetrahydro-naphthalen-2-yl)-cyclopropyl]-penta-2,4-dienoic acid.
as §3

RXRα [4] = biological target: T1, RXRα; test: ligand binding assay, RXRα; details: read-out: RXR Bind Ki α
Description: as §1, §3

RARγ = biological target: T3, RARγ (Homo sapiens, UniProt P13631); test: chimeric receptor transactivation assay, RARγ; assay type: cell-based
T3 sequence (P13631 185-419 limits assumed): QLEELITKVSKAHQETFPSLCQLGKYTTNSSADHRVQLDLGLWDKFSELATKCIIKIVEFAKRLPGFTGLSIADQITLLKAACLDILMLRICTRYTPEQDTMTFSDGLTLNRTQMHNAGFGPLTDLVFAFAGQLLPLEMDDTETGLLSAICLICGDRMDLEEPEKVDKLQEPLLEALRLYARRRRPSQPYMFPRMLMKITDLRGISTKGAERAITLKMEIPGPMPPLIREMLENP
Description: as §4
as §2, with “Table 1 discloses the activity of certain exemplary compounds of the invention in the above-described receptor transactivation and binding assays. Particularly,” for “Particularly,”
as §5, §3

SMILES	EC50 (RXRα [1]; NA = not active at all as an agonist, read-out: RXR Trans. EC50 α)	RXR α efficacy in percentage as compared to the standard compound (RXRα [1]; number in brackets)	Serum thyroxine (young db/db mice; 50 mg/kg orally for 14 days, mean +/- SD (n = 7))	effect on serum T4 (in words) (young db/db mice; mouse, in vivo)	Ki (RARα [2])	EC50 (RARα [3]; NA = not active at all as an agonist, read-out: RAR Trans. EC50 α)	RAR α efficacy in percentage as compared to the standard compound (RARα [3]; number in brackets)	Ki (RXRα [4])	EC50 (RARγ; NA = not active at all as an agonist, read-out: RAR Trans. EC50 γ)	RAR γ efficacy in percentage as compared to the standard compound (RARγ; number in brackets)
CCOc1cc2c(cc1\C(CC)=C(F)/C=C/C(C)=C/C(=O)O)C(C)(C)CCC2(C)C [Compound 2, (2E,4E,6E)-7-(3-Ethoxy-5,5,8,8-tetramethyl-5,6,7,8-tetrahydronaphthalen-2-yl)-6-fluoro-3-methylnona-2,4,6-trienoic acid]	0.8 nM	17%	1.30 ± 0.28 µg/dL	does not affect	152 nM	37 nM	15%	22 nM	–	–
CCCOc1cc2c(cc1\C(C)=C(F)/C=C/C(C)=C/C(=O)O)C(C)(C)CCC2(C)C [Compound 4]	–	–	–	–	590 nM	–	–	6 nM	> 1000 nM	15%
